# Where two headings read alike, the source gives them in different places.
# Columns and labels:
# [1] = MTT assay, cell toxicity in non-infected cells; format: cell-based; settings: African green monkey, Vero cells (non-infected); non-infected cells; treatment for 7 days; read-out: CC50 (concentration at which cell toxicity is caused to 50% of cells)
# Protocol: (§1) (1) One day before the experiment, Vero cells were inoculated in a 96-well plate and incubated at 37° C. and 5% CO2. (2) Two-fold serial dilutions of 5-ALA were prepared (˜0.8 mM) using the maintenance culture solution (MEM+1% fetal bovine serum+10 mM non-essential amino acid+1000 U/ml penicillin+100 μg/ml streptomycin+1 mM HEPES). Water was used as a negative control. Two-fold serial dilutions of lucidone were also prepared (˜160 μM) in the same manner. (3) The culture solution was removed from the plate thus prepared, and the 5-ALA solution or the lucidone solution prepared in (2) was added to the plate in a volume of 100 μl per well. Three wells were used for each condition. (4) The old culture solution was removed from the plate every 24 hours, and the fresh 5-ALA solution or lucidone solution was added to the plate, followed by culturing. (5) The cells were cultured with the 5-ALA solution for 2, 4, or 7 days or with the lucidone solution for 7 days, and then rinsed with PBS twice. An MTT solution in a volume of 100 μl was added to the cells, and the cells were cultured at 37° C. and 5% CO2 for 3 hours. The MTT solution in use was prepared by dissolving thiazolyl blue tetrazolium bromide in a mixture containing equal volumes of 2×MEM and sterile water (10 mg/ml) and sterilizing the resulting mixture by filtration (prepared before use). (6) The culture solution was removed from the plate, and isopropyl alcohol in a volume of 100 μl was added to the plate, and the plate was subject to shaking at room temperature for about 5 minutes. (7) The absorbance at 570 nm was measured, and the relative absorbance was calculated as a percentage with respect to the absorbance in the well of 0 mM treatment.
# [2] = tested on: Vero cells; assay: MTT assay, cell toxicity in non-infected cells; format: cell-based
# Protocol: as §1
# [3] = tested on: dengue virus type-1 Mochizuki strain (DENV1); assay: Inhibitory effect on dengue virus type-1 replication in Vero cells; format: cell-based
# Protocol: (1) One day before infection (Day 0), Vero cells were seeded in a 24-well plate and incubated at 37° C. and 5% CO2. A culture solution was MEM+10% fetal bovine serum+10 mM non-essential amino acid+1000 U/ml penicillin+100 μg/ml streptomycin. In an experiment in which the treatment with the agent was performed before infection, the agent to be examined was added to the culture solution at this point. In all experiments, 5-aminolevulinic acid hydrochloride was used as 5-ALA, sodium ferrous citrate (SFC) was used as an iron-containing compound, 300 μM ribavirin or lucidone of various concentrations was used as a positive control, and water was used as a negative control. […] After the viruses were adsorbed to the cells for 1 hour, the cells were rinsed with phosphate-buffered saline (PBS) to completely remove the inoculation liquid. A maintenance culture solution (MEM+1% fetal bovine serum+10 mM non-essential amino acid+1000 U/ml penicillin+100 μg/ml streptomycin+1 mM HEPES) in a volume of 1 ml was added to the plate, and the cells were cultured at 37° C. and 5% CO2. In an experiment in which the agent was added concurrently with infection, the agent to be examined was added to the maintenance culture solution at this point. (3) After 24 hours (Day 2), the culture solution was recovered from the plate and a fresh maintenance culture solution in a volume of 1 ml was added to the plate, and the cells were cultured at 37° C. and 5% CO2. In an experiment in which the agent was added after infection, the agent to be examined was added at predetermined time points after infection. The recovered culture solution was subjected to centrifugation at 3000 rpm for 5 minutes and the resulting supernatant was frozen and stored. […]
# (1) One day before the experiment, Vero cells were inoculated in a 24-well plate and incubated at 37° C. and 5% CO2. […] The crystal violet solution was removed from the plate, and, after rinsing with water and drying, the number of plaques was counted. The viral titer in the culture solution was calculated based on the number of plaques. […]
# [4] = tested on: dengue virus type-4 TVP360 strain (DENV4); assay: Inhibitory effect on dengue virus type-4 replication in Vero cells; format: cell-based
# Protocol: (§2) (1) One day before infection (Day 0), Vero cells were seeded in a 24-well plate and incubated at 37° C. and 5% CO2. A culture solution was MEM+10% fetal bovine serum+10 mM non-essential amino acid+1000 U/ml penicillin+100 μg/ml streptomycin. In an experiment in which the treatment with the agent was performed before infection, the agent to be examined was added to the culture solution at this point. In all experiments, 5-aminolevulinic acid hydrochloride was used as 5-ALA, sodium ferrous citrate (SFC) was used as an iron-containing compound, 300 μM ribavirin or lucidone of various concentrations was used as a positive control, and water was used as a negative control. […] After the viruses were adsorbed to the cells for 1 hour, the cells were rinsed with phosphate-buffered saline (PBS) to completely remove the inoculation liquid. A maintenance culture solution (MEM+1% fetal bovine serum+10 mM non-essential amino acid+1000 U/ml penicillin+100 μg/ml streptomycin+1 mM HEPES) in a volume of 1 ml was added to the plate, and the cells were cultured at 37° C. and 5% CO2. In an experiment in which the agent was added concurrently with infection, the agent to be examined was added to the maintenance culture solution at this point. (3) After 24 hours (Day 2), the culture solution was recovered from the plate and a fresh maintenance culture solution in a volume of 1 ml was added to the plate, and the cells were cultured at 37° C. and 5% CO2. In an experiment in which the agent was added after infection, the agent to be examined was added at predetermined time points after infection. The recovered culture solution was subjected to centrifugation at 3000 rpm for 5 minutes and the resulting supernatant was frozen and stored. (4) Thereafter, recovering and supplying of the culture solution was repeated every 24 hours. It is of note that the infection experiments were performed using 2 wells for all conditions.
# (§3) (1) One day before the experiment, Vero cells were inoculated in a 24-well plate and incubated at 37° C. and 5% CO2. (2) Samples for titer measurement were thawed and ten-fold serial dilutions of the samples were prepared using the maintenance culture solution. (3) The culture solution was removed from the plate thus prepared, and the serial dilutions prepared in procedure (2) were each inoculated in a volume of 200 μl. After adsorption for 1 hour, the inoculation liquid was removed from the plate, and 1% methyl cellulose (MEM+1% methyl cellulose+1% fetal bovine serum) in a volume of 1 ml was added to the plate. […] The crystal violet solution was removed from the plate, and, after rinsing with water and drying, the number of plaques was counted. The viral titer in the culture solution was calculated based on the number of plaques. […]
# [5] = tested on: dengue virus type-3 CH53489 strain (DENV3); assay: Inhibitory effect on dengue virus type-3 replication in Vero cells; format: cell-based
# Protocol: as §2, §3
# [6] = tested on: Zika virus PRVABC59 strain (ZKV); assay: Inhibitory effect on Zika virus replication in Vero cells; format: cell-based
# Protocol: as §2, §3
# [7] = tested on: heme oxygenase-1 (HO-1); settings: Non-Patent Literatures 11, 13, 14, 15; cited from earlier work
# [8] = tested on: flavivirus; assay: Difference in concentrations for exhibiting cell toxicity and drug efficacy (therapeutic window)
# Source text: As one of action mechanisms of the anti-dengue virus activity of lucidone, an increase in HO-1 in cells is known.
# [9] = tested on: Japanese encephalitis virus Nakayama strain (JEV Nakayama); assay: Inhibitory effect on Japanese encephalitis virus replication in Vero cells (progeny virus titer by plaque assay); format: cell-based
# [10] = tested on: dengue virus; settings: Non-Patent Literatures 9 to 11; cited from earlier work
# [11] = tested on: Zika virus; settings: Non-Patent Literatures 7 and 8, cited from earlier work
# [12] = tested on: Japanese encephalitis virus; settings: Non-Patent Literature 6; cited from earlier work
compound,measurement,setting,value
"Cl.NCC(=O)CCC(=O)O [5-ALA, 5-aminolevulinic acid hydrochloride]",CC50 at 7 days,[1],> 800 µM
same,cell toxicity,"[2]; non-infected cells, 5-ALA solution for 2, 4 or 7 days, up to 0.8 mM, FIGS. 12-14",observed in the non-infected cells in a dose-dependent manner
same,inhibitory effect on dengue virus type-1,"[3]; 0.2 mM, treatment for 7 days after infection, FIG. 22",exhibited up to Day 9
same,inhibitory effect on dengue virus type-1 replication compared with ribavirin,"[3]; 5-ALA 0.2 mM vs ribavirin 300 μM, FIG. 22",stronger than the effect of ribavirin (300 μM)
same,inhibitory effect on dengue virus type-1 when the agent was removed from the culture solution,[3]; after removal of the agent,lost with the lapse of time
same,inhibitory effect on dengue virus type-4 replication on Day 8,"[4]; 0.2 mM, Day 8",decreased
same,inhibitory effect on dengue virus type-4,"[4]; 0.2 mM, treatment for 7 days after infection, FIG. 24",exhibited up to Day 7
same,inhibitory effect on dengue virus type-3 replication on Day 8,"[5]; 0.2 mM, Day 8",decreased
same,inhibitory effect on dengue virus type-3,"[5]; 0.2 mM, treatment for 7 days after infection, FIG. 23",exhibited up to Day 7
same,inhibitory effect on dengue virus type-3 replication compared with ribavirin,"[5]; 5-ALA 0.2 mM vs ribavirin 300 μM, FIG. 23",stronger than the effect of ribavirin (300 μM)
same,inhibitory effect after Day 9,"[6]; 0.2 mM, after Day 9",decreased
same,inhibitory effect on Zika virus,"[6]; 0.2 mM, treatment for 7 days after infection, FIG. 25",exhibited up to Day 8
same,inhibitory effect on Zika virus replication compared with ribavirin,"[6]; 5-ALA 0.2 mM vs ribavirin 300 μM, FIG. 25","stronger than the effect of ribavirin (300 μM) on Day 5, Day 6, and Day 8"
same,heme oxygenase-1 (HO-1) in cells,[7],induces expression of HO-1
same,concentration required for causing the cell toxicity,[8]; higher than 0.8 mM not examined,at least 0.8 mM
same,concentration at which anti-flavivirus activity is confirmed,[8]; summary of Examples,≥ 0.2 mM
same,inhibitory effect on Japanese encephalitis virus replication,"[9]; 0.05 mM, treatment for 7 days after infection, FIG. 7",exhibited
same,inhibitory effect on Japanese encephalitis virus replication,"[9]; 0.2 mM, treatment for 2 days after infection, FIG. 11",exhibited
same,inhibitory effect on Japanese encephalitis virus replication,"[9]; 0.2 mM, treatment for 4 days after infection, FIG. 10",exhibited
same,inhibitory effect on Japanese encephalitis virus replication,"[9]; 0.2 mM, treatment for 7 days after infection, FIG. 7",exhibited
same,"inhibitory effect on Japanese encephalitis virus replication, 5-ALA compared with low dose lucidone","[9]; 5-ALA 0.2 mM vs lucidone 10 μM and 2.5 μM, 7 days after infection, FIG. 20",stronger inhibitory effect on the Japanese encephalitis virus replication than 10 μM and 2.5 μM of lucidone
same,inhibitory effect on Japanese encephalitis virus replication compared with ribavirin,"[9]; 5-ALA 0.2 mM vs ribavirin 300 μM, 7 days after infection, FIG. 7",stronger than the effect of ribavirin (300 μM)
same,"duration of inhibitory effect on Japanese encephalitis virus after removal, compared with dengue virus","[9]; 1 day treatment after infection, vs Example 4",lasted longer than in the case of the dengue virus
same,"inhibitory effect on Japanese encephalitis virus replication, treatment for 4 days and 2 days compared with 7 days","[9]; FIG. 7, FIG. 10, FIG. 11",less inhibitory effect
same,inhibitory effect on Japanese encephalitis virus replication when the agent was removed from the culture solution,[9]; after removal of the agent,lost with the lapse of time
same,appearance of virus resistant to the agent,"[9]; continuous treatment 7 days, compared with ribavirin, FIG. 7",delays the appearance of the virus resistant to the agent more than ribavirin
same,dose-dependent inhibitory effect on Japanese encephalitis virus replication,"[9]; treatment after infection for 1 day (Day 2), 0.05 mM to 1 mM, FIG. 5",exhibited the dose-dependent inhibitory effect
"COC1=CC(=O)C(=C(O)/C=C/c2ccccc2)C1=O [lucidone, reference compound]",cell toxicity at 40 μM,"[2]; cells not infected with the flavivirus, 40 μM, 7 days",did not cause the cell toxicity
same,cell toxicity,"[2]; non-infected cells, lucidone for 7 days, up to 160 μM, FIG. 15",observed in a dose-dependent manner
same,CC50,"[2]; non-infected cells, treatment for 7 days, read-out: CC50 (concentration at which cell toxicity is caused to 50% of cells)",> 60 µM
same,replication of dengue virus,[10],suppress replication
same,heme oxygenase-1 (HO-1) in cells,[7],increases HO-1 in cells
same,concentration at which anti-flavivirus activity is confirmed,[8]; summary of Examples,0.04 mM
same,concentration at which cell toxicity is confirmed,[8]; summary of Examples,40 µM
same,"inhibitory effect on Japanese encephalitis virus replication, lucidone compared with 5-ALA","[9]; lucidone 40 μM vs 5-ALA 0.2 mM, 7 days after infection, FIG. 17",stronger inhibitory effect on the Japanese encephalitis virus replication than 0.2 mM 5-ALA
O=C(Nc1ccc([N+](=O)[O-])cc1Cl)c1cc(Cl)ccc1O [niclosamide],replication of Zika virus,[11],suppress replication
"NC(=O)c1ncn([C@@H]2O[C@H](CO)[C@@H](O)[C@H]2O)n1 [ribavirin, reference compound]",replication of dengue virus,[10],suppress replication
same,inhibitory effect on dengue virus type-4 replication under continuous treatment,[4]; ribavirin 300 μM,reduction in the inhibitory effect
same,"inhibitory effect on dengue virus type-4 replication, ribavirin compared with 5-ALA","[4]; ribavirin 300 μM vs 5-ALA 0.2 mM, FIG. 24",stronger than the inhibitory effect on the dengue virus replication by treatment with 5-ALA (0.2 mM)
same,inhibitory effect on dengue virus type-3 replication under continuous treatment,"[5]; ribavirin 300 μM, from Day 7",reduction in the inhibitory effect
same,inhibitory effect on Zika virus replication under continuous treatment,[6]; ribavirin 300 μM,reduction in the inhibitory effect
CC(=O)Oc1ccccc1C(=O)Nc1ncc([N+](=O)[O-])s1 [nitazoxanide],replication of Japanese encephalitis virus,[12],suppress replication
Hemin,replication of Zika virus,[11],suppress replication of Zika virus in vitro
same,replication of Zika virus,[11]; listed as hemin,reduces replication of Zika virus in vitro

# Reference: patent US20220193124A1, “Therapeutic Agent for Flavivirus Infection” (NEOPHARMA JAPAN CO., LTD., priority 2019, published 2022)
